{"source": "ChEMBL document CHEMBL5608206", "about": "“Exploring monocyclic core: Discovery of pyrrol-2-one derivatives as a new series of potent MCHR1 antagonists with in vivo efficacy” (Eur J Med Chem, 2024)", "key": {"in vitro [1]": {"assay": "in vitro", "conditions": "mouse, liver microsomes"}, "in vitro [2]": {"assay": "in vitro", "conditions": "rat, liver microsomes"}, "in vitro [3]": {"assay": "in vitro", "conditions": "human, liver microsomes"}}, "data": [{"smiles": "COc1cc(N2CC=C(Oc3ccc(C4CC4)cc3)C2=O)ccc1OCCO", "values": [{"measurement": "remaining at 10 min, 3 µM", "setting": "in vitro [1]", "value": 74, "unit": "%"}, {"measurement": "remaining at 10 min, 3 µM", "setting": "in vitro [2]", "value": 71, "unit": "%"}, {"measurement": "remaining at 10 min, 3 µM", "setting": "in vitro [3]", "value": 87, "unit": "%"}, {"measurement": "logP", "setting": "physchem", "value": 3.3}]}]}
